According to paper PMC8659110, “Preliminary Study of New Gallium-68 Radiolabeled Peptide Targeting NRP-1 to Detect Brain Metastases by Positron Emission Tomography” (Molecules, 2021):
Where two headings read alike, the source gives them in different places. Where a SMILES comes first, the peptide text is derived from it. Primed or numbered codes have the meaning given here. Where no end group is shown, it is not given here. The star is where a group is joined. Cy5(nonsulfonated) = CN1C(=CC=CC=CC2=[N+](CCCCCC(=O)*)c3ccccc3C2(C)C)C(C)(C)c2ccccc21; NODAGA = O=C(O)CN1CCN(CC(=O)O)CCN(C(CCC(=O)*)C(=O)O)CC1; Cy5 = Cy5 fluorophore (fluorescent dye); NODAGA′ = chelator

What was measured:
[1] = test system: NRP-1 protein; design: method as in PMID 19464192, PMID 25645959; settings: previous studies; cited from earlier work
[2] = test system: MDA-MB-231 cells; assay: Proliferation assay, real-time cell tracking (IncuCyte), MDA-MB-231; assay type: cell-based; settings: for Doubling-time values (Time (h) ± SD): exponential phase
Protocol: (§1) The proliferation of MDA-MB-231 and HUVEC cells were investigated using a label-free, noninvasive IncuCyte® S3 live-cell imaging system (Sartorius, Germany). Cells were plated as described for metabolic activity placed in an incubator (Binder) at 37 °C. Cells were photographed at 2-h intervals using a 20× objective over several days. […] Phase–object confluence was calculated at each time point based on the segmentation of high-definition phase-contrast images using IncuCyte S3 2018B software and expressed in percentages. Experiments were performed in triplicate.
(§2) Cell doubling time (DT) was calculated using the following Equation (1):(1) DT=Tend−TstartLn2/LnCend−LnCstart where Tstart/Tend are the times at the start/end of the exponential growth phase. Cstart/Cend are the percentage of confluence of the cells at the start/end of the exponential growth phase.

[3] = Photophysical properties (absorption and fluorescence) in water; assay type: physicochemical; settings: for Fluorescence quantum yield (φF): λex = 590 nm
Protocol: All reactions involving cyanine5 compounds were performed in the dark. Preparative reverse-phase high-performance liquid chromatography (HPLC) was performed on SPOT PREP Liquid Chromatography (ARMEN Instrument, Saint-Avé, France) with a Pursuit 5-C18 column (5 μm, 21.2 × 150 mm; Varian). Pure compounds obtained were analyzed accordingly by LC-MS on a Shimadzu LCMS-2020 monitored by a Diode Array Detector SPD-M20A (Shimadzu, Marne la Vallée, France) using a Pursuit 5-C18 column (4.6 × 150 mm; Varian) (Varian, Agilent Technologies, Santa Clara, CA, USA). Absorption spectra were recorded on a Perkin-Elmer Lambda EZ210 (Perkin-Elmer, Courtaboeuf, France) double-beam UV–visible spectrophotometer. Fluorescence spectra were recorded on a Fluorolog-3 spectrofluorometer FL3-222 (Horiba Jobin Yvon, Longjumeau, France) with a thermostated cell compartment (25 °C) using a 450-W Xenon lamp. The fluorescence quantum yield (φF) was determined using tetraphenyl porphyrin (TPP) solution in toluene as the fluorescence standard (φF = 0.11).

[4] = test system: HUVEC cells; assay: Proliferation assay, real-time cell tracking (IncuCyte), HUVEC; assay type: cell-based, human; settings: for Doubling-time values (Time (h) ± SD): exponential phase
Protocol: as §1, §2

[5] = molecular target: NRP-1 recombinant chimeric protein; assay: Competitive binding assay with biotinylated VEGF-165 on recombinant NRP-1; settings: for IC50: in the presence of heparin, 2 h at room temperature, read-out: IC50 ± SD (displacement of 50% of b-VEGF-165); for Concentration needed to decrease the binding of b-VEGF-165 to NRP-1: only at high concentration
From the text: (§3) We evaluated the binding capacity of compounds toward NRP-1 using two different techniques: (1) a competitive binding assay with biotinylated VEGF (b-VEGF-165), a natural ligand of NRP-1 immobilized on a microplate surface in the presence of heparin, which allowed calculating the IC50 (the concentration of compound that displaced 50% of b-VEGF-165), and (2) surface plasmon resonance (SPR), a sensitive, optical-based, label-free detection technology for the real-time monitoring of molecular interactions between injected analytes and ligands covalently attached to the surface of a sensor chip. This technique was used to calculate the KD. VEGF-165 was used as the positive control in these two techniques.
The binding of compounds for the NRP-1 protein was evaluated in terms of the half-maximal inhibitory concentration (IC50 values) through a competitive assay, as previously described. VEGF-165, the natural ligand of NRP-1, was used as the positive control. Briefly, the surfaces of Maxisorp microplates (Thermo Fisher Scientific, France) were coated with NRP-1 recombinant chimeric proteins (Bio-techne, France). The binding of compounds to NRP-1 was assessed using biotinylated VEGF-165 (b-VEGF-165) (AcroBioSystem, Interchim, France) in the presence of heparin (Bio-techne, France) in competition or not with various concentrations of compounds or unlabeled VEGF-165 (Bio-techne, France) as the positive control. After 2 h of incubation at room temperature, the plates were washed, and the amount of bound b-VEGF-165 was stained with streptavidin horseradish peroxidase conjugate (Bio-techne, France) and assayed. […] The results were expressed as the mean of the relative absorbance percentage to wells containing only blocking buffers of triplicate measurements. The affinities were estimated as the IC50 values (i.e., the concentration of compounds that displaced 50% of β-VEGF-165 binding) calculated using the one-site fit log-IC50 nonlinear analysis regression of GraphPad Prism 6 software (v 6.05, USA).

[6] = molecular target: T1, recombinant rat NRP-1 protein (Rattus norvegicus, UniProt Q9QWJ9); assay: Surface plasmon resonance (SPR) on immobilized recombinant NRP-1; assay type: binding; settings: Figure S5, injected at 10 and 30 µM
T1 construct: purchased Bio-techne (France)
From the text: as §3
The equilibrium dissociation constant (KD) was evaluated using surface plasmon resonance, based on Gries et al.. All experiments were performed at 25 °C using the BIACORE T200 instrument (GE Healthcare Biacore, Uppsala, Sweden). Sensor surfaces and other Biacore consumables were purchased from GE Healthcare Biacore (USA). […]
They flowed at a rate of 30 µL/min for 300 s at 25 °C. […] The equilibrium response was recorded 5 s before the end of the compound injection (time window: 5 s). […] The KD value was determined by fitting the response (RU) versus analyte concentration (µM) curve to a simple 1:1 interaction model with the BiaEvaluation 3.2 software (GE Healthcare). […]

[7] = molecular target: NRP-1; design: method as in PMID 22372770; settings: read-out: KD previously found; cited from earlier work
[8] = assay type: physicochemical; settings: 2 h
Protocol: (§4) The stability of [^68Ga]Ga-NODAGA-K(Cy5)DKPPR was performed in various media, final formulated media, and plasma.
The final [^68Ga]Ga-NODAGA-K(Cy5)DKPPR was kept at room temperature and analyzed by radio-HPLC at the end of the synthesis and 1 h, 2 h, and 3 h after manufacturing.

[9] = assay type: in vitro ADME, rodent
Protocol: as §4
For the stability in plasma, 100 µL of [^68Ga]Ga-NODAGA-K(Cy5)DKPPR was added to 400 µL of fresh rodent plasma and was incubated at 37 °C for 0, 30, 60, and 120 min. After incubation, the solutions were treated with 400 µL of acetonitrile to precipitate the proteins, vortexed for 1 min, and then centrifuged (2500 rpm, 980 G, 5 min). The supernatant layer was analyzed by analytical radio-HPLC.

[10] = test system: MDA-MB-231 tumor in the rat brain; design: species or system nude rat; settings: in vivo
Protocol: Breast cells from the MDA-MB-231 lineage (MDA-MB-231 (ATCC® HTB-26)) were induced by the vascular injection of 2.5 × 10^5 cells resuspended in a volume of 50 µL of RPMI medium (Merck, Molsheim, France) into the animal’s internal carotid.
PET recordings were obtained with a camera dedicated to small animal studies (Inveon, Siemens Preclinical Solutions, Knoxville, TN, USA). After rats anesthetized with isoflurane, 50 MBq of [^68Ga]Ga-NODAGA-K(Cy5)DKPPR (1st day) were injected as a bolus via a lateral tail vein. […]
The uptake values are expressed in SUV (Standardized Uptake Values), which are standardized fixation values relative to the animal’s weight and injected activity. Tissue time activity curves (TTACs) for tumors and various organ activities were determined by average SUVs in volumes of interest (VOI), which were drawn with dedicated software (Inveon Research Workplace 4.1, Siemens®, Knoxville, USA) on static images encompassing the whole acquisition. […]

Row | IC50 [5] | Compound | Doubling-time values (Time (h) ± SD) ([2]; MDA MB 231, 1 µM) | Doubling-time values (Time (h) ± SD) ([2]; MDA MB 231, 10 µM) | Molar extinction coefficient (ε) [3] | Fluorescence quantum yield (φF) [3] | Doubling-time values (Time (h) ± SD) ([4]; 1 µM) | Doubling-time values (Time (h) ± SD) ([4]; 10 µM) | also measured
1 |  | ATWLPPR [ligand peptide of NRP-1 from previous studies] |  |  |  |  |  |  | IC50 [1]: 19 µM
2 | 0.1 µM | CN1C(=CC=CC=CC2=[N+](CCCCCC(=O)NCCCC[C@H](NC(=O)CCC(C(=O)O)N3CCN(CC(=O)O)CCN(CC(=O)O)CC3)C(=O)N[C@@H](CC(=O)O)C(=O)N[C@@H](CCCCN)C(=O)N3CCC[C@H]3C(=O)N3CCC[C@H]3C(=O)N[C@@H](CCCNC(=N)N)C(=O)O)c3ccccc3C2(C)C)C(C)(C)c2ccccc21 (stereo partly shown) [^natGa-NODAGA-K(Cy5)DKPPR, metal not drawn] ({NODAGA}-K(Cy5(nonsulfonated))DKPPR-OH; C-terminus assumed) | 31 ± 1 h | 32 ± 1 h | 44,552 L mol^−1 cm^−1 | 61% | 30 ± 3 h | 28 ± 2 h | Proliferation of cells (confluence follow-up) ([2]; MDA-MB-231, 0–10 µM): did not modify; Proliferation of cells (confluence follow-up) ([4]; 0–10 µM): did not modify
3 |  | C[N+]1=C(C=CC=CC=C2N(CCCCCC(=O)ON3C(=O)CCC3=O)c3ccccc3C2(C)C)C(C)(C)c2ccccc21.[Cl-] [Cy5-NHS, Cyanine5-NHS ester, reference compound] |  |  | 209,000 L mol^−1 cm^−1 | 27% |  |  | 
4 |  | ^natGa-NODAGA-K(Cy5)RPKPD ({NODAGA′}-K(Cy5)RPKPD; also: NODAGA complexed with natGa) | 33 ± 1 h | 33 ± 3 h | 39,870 L mol^−1 cm^−1 | 79% | 27 ± 1 h | 28 ± 1 h | SPR interaction toward NRP-1 (shape of curve) [6]: weak affinity or a nonspecific interaction; Concentration needed to decrease the binding of b-VEGF-165 to NRP-1 [5]: > 100 µM
5 | 300 µM | KRPKPD |  |  |  |  |  |  | SPR interaction toward NRP-1 (shape of curve) [6]: weak affinity or a nonspecific interaction; Concentration needed to decrease the binding of b-VEGF-165 to NRP-1 [5]: > 100 µM
6 | 2 ± 1 µM | H-KDKPPR-OH [KDKPPR] | 32 ± 1 h | 33 ± 2 h |  |  | 29 ± 2 h | 30 ± 2 h | Kd [7]: 8.7 µM
7 |  | VEGF-165: natural ligand of NRP-1, positive control |  |  |  |  |  |  | Shift of b-VEGF-165 binding to the receptor ([5]; used at 26 nM, positive control, data not shown): completely shifted
8 |  | [^68Ga]Ga-NODAGA-K(Cy5)DKPPR |  |  |  |  |  |  | In vitro stability, remaining stable [8]: > 95%; In vitro stability (time) [9]: > 120 min; In vitro stability, remaining stable ([9]; plasma, 2 h): > 95%; Time to plateau of normalized tumor TTAC after injection [10]: roughly 10 min
